This is an account of results in ChEMBL document CHEMBL1156212, “Curcumin derivatives inhibit testicular 17beta-hydroxysteroid dehydrogenase 3” (Bioorg Med Chem Lett, 2010).

pIC50: −log10 of the molar value. The source made the active and inactive calls. No cut-off for these calls is given here.

In assay [1] the target is T1, 17-beta-hydroxysteroid dehydrogenase type 3 (Rattus norvegicus) (UniProt O54939).
T1 sequence (whole entry): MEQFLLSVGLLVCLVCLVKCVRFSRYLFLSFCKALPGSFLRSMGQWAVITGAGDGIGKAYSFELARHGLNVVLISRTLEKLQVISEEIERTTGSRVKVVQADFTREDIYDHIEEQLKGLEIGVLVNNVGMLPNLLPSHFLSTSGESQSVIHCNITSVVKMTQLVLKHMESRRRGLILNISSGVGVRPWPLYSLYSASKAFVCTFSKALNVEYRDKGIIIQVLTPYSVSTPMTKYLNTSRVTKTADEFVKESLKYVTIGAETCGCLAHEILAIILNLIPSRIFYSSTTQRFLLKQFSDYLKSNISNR
The experiment in a line: Inhibition of 17beta-HSD3 in Sprague-Dawley rat laydig cells at 100 uM.

Assay [2] addresses T1, 17-beta-hydroxysteroid dehydrogenase type 3 (Rattus norvegicus). The experiment in a line: Inhibition of 17beta-HSD3 in Sprague-Dawley rat testis microsomes at 100 uM.
Assay [3] concerns the target T2, 17-beta-hydroxysteroid dehydrogenase type 3 (Homo sapiens, UniProt P37058).
T2 sequence (P37058 whole entry): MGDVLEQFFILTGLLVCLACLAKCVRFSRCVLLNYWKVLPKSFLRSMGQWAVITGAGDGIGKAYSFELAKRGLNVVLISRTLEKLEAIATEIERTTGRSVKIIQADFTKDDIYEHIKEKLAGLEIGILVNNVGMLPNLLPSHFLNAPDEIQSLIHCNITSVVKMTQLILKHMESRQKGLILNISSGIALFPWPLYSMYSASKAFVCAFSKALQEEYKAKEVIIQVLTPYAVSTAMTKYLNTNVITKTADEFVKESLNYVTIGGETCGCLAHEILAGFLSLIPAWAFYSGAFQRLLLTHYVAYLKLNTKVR
Description: Inhibition of 17beta-HSD3 in human testis microsomes.

The target of assay [4] is T3, 17-beta-hydroxysteroid dehydrogenase type 3 (Homo sapiens) (UniProt P37058).
T3 sequence (whole entry): T2 sequence (P37058 whole entry)
The experiment in a line: Inhibition of 17beta-HSD3 in human testis microsomes at 100 uM.

The target in assay [5] is T4, 17-beta-hydroxysteroid dehydrogenase type 3 (Rattus norvegicus, UniProt O54939).
T4 sequence (O54939 whole entry): T1 sequence (whole entry)
Description: Inhibition of 17beta-HSD3 in Sprague-Dawley rat laydig cells.

The target of assay [6] is T4, 17-beta-hydroxysteroid dehydrogenase type 3. The experiment in a line: Inhibition of 17beta-HSD3 in Sprague-Dawley rat testis microsomes.
The nature of assay [7]: Inhibition of LH-stimulated testosterone production in Sprague-Dawley rat leydig cells at 10 uM after 18 hrs by tritium based radio immuno assay relative to control. Format: functional. Conditions: read-out: INH.
Assay [8] addresses T1, 17-beta-hydroxysteroid dehydrogenase type 3 (Rattus norvegicus). The experiment in a line: Uncompetitive inhibition of 17beta-HSD3 in Sprague-Dawley rat testis microsomes at 1 to 10 uM by Lineweaver-Burke plot analysis. Particulars: Microsome.
In assay [9] the target is T3, 17-beta-hydroxysteroid dehydrogenase type 3 (Homo sapiens). Particulars: Testis, Microsomes, 1 to 10 uM.
Description: Uncompetitive inhibition of 17beta-HSD3 in human testis microsomes at 1 to 10 uM by Lineweaver-Burke plot analysis
Assay [10] has as its target T2, 17-beta-hydroxysteroid dehydrogenase type 3. Description: Inhibition of 17beta-HSD3.

As a reminder, the pIC50 is the IC50 on a negative log10 scale, so that one unit is a factor of ten. A low value points to a large IC50. As for `CN(C)c1ccc(/C=C/C(=O)/C=C/c2ccc(N(C)C)cc2)cc1`, the inhibition entry in assay [1] is “inactive”. The inhibition in assay [2] stood at 15%. In addition, the pIC50 in assay [3] was 5.62.
With `CCOc1ccc(/C=C2\CC/C(=C\c3ccc(OCC)cc3)C2=O)cc1`, the inhibition in assay [1] came out at 14%. The inhibition entry in assay [2] and in assay [4] was “inactive” in each case.
As for `O=C1/C(=C/c2ccc(F)cc2)CC/C1=C\c1ccc(F)cc1`, the inhibition in assay [1] is 14%; in assay [2], 15%; in assay [4], 11%.
`COc1cc(/C=C/C(=O)/C=C/c2cc(OC)c(OC)c(OC)c2)cc(OC)c1OC`: the inhibition result in [1], in [2] and in assay [4] was “inactive” throughout.
For `COc1cc(/C=C/C(=O)/C=C/c2ccc(OC3CCCOC3)c(OC)c2)ccc1OC1CCCOC1` (stereo unspecified), in [1], the inhibition result is “inactive”. Moreover, the inhibition stood at 35% in [2] and 20% in [4].
Turning to `CCOc1ccc(/C=C/C(=O)/C=C/c2ccc(OCC)cc2)cc1`, in assay [5], the negative-log IC50 (pIC50) was 7.15. For the same compound, the inhibition in assay [2] and in assay [4] was 16% throughout.
As for `O=C1/C(=C/c2cccc(C(F)(F)F)c2F)CC/C1=C\c1cccc(C(F)(F)F)c1F`, the inhibition entry in [1] and in [4] was “inactive” in each case. The inhibition in [2] came out at 23%.
Consider `COc1cc(/C=C2\CC/C(=C\c3ccc(OCCCN(C)C)c(OC)c3)C2=O)ccc1OCCCN(C)C`, for which the inhibition in [1] was found to be 38%; in [2] it was 32%; in assay [4], 28%.
On to `O=C1C=CC(=O)C(c2ccc(-c3ccccc3)cc2)=C1`, for which the pIC50 in [3] was 5.57.
Turning to `COc1cc(/C=C2\CCC/C(=C\c3ccc(OC4CCCOC4)c(OC)c3)C2=O)ccc1OC1CCCOC1` (stereo unspecified), the inhibition in [1] is 26%; in [2], 27%. In assay [4], the inhibition entry was “inactive”.
`O=C(/C=C/c1ccc(O)cc1)/C=C/c1ccc(O)cc1`: the inhibition in assay [1] was determined as 30%; in [2] it was 33%; in assay [4], 46%.
Regarding `CN(C)c1ccc(/C=C2\CC/C(=C\c3ccc(N(C)C)cc3)C2=O)cc1`, the inhibition entry in assay [1], in [2] and in assay [4] was “inactive” each time.
In turn, `O=C(/C=C/c1ccc(OC2CCCOC2)cc1)/C=C/c1ccc(OC2CCCOC2)cc1` (stereo unspecified) showed a pIC50 in assay [5] of 5.89. Further, the figures for the inhibition in assay [2] and in [4] were 29% and 22%, respectively.
For `COc1cc(/C=C2\CCC/C(=C\c3cc(OC)c(OC)c(OC)c3)C2=O)cc(OC)c1OC`, the values for the pIC50 in [5], in assay [6] and in assay [3] were less than 4.00, 5.74 and 7.00, respectively.
Take `CCOc1ccc(/C=C2\CCC/C(=C\c3ccc(OCC)cc3)C2=O)cc1`: the inhibition entry in assay [1] is “inactive”. The inhibition in assay [2] stood at 16%; in [4] it was 13%.
`COc1cc(/C=C2\CC/C(=C\c3cc(OC)c(OC)c(OC)c3)C2=O)cc(OC)c1OC`: the inhibition in [1] is 11%. Also, the inhibition result in [2] and in assay [4] was “inactive” each time.
Turning to `O=C1/C(=C/c2ccc(O)cc2)CCC/C1=C\c1ccc(O)cc1`, the inhibition in assay [1] is 13%; in [2], 34%; in assay [4], 38%.
On the same counts, the results for `O=C1/C(=C/c2ccc(OC3CCCOC3)cc2)CC/C1=C\c1ccc(OC2CCCOC2)cc1` (stereo unspecified) are “inactive”, 13% and “inactive”.
`O=C1/C(=C/c2cccc(Br)c2)CC/C1=C\c1cccc(Br)c1`: the values for the inhibition in assay [1] and in assay [4] were 30% and 14%, respectively. In addition, the negative-log IC50 (pIC50) in assay [6] was 6.15.
In the case of `O=C1/C(=C/c2ccc(F)cc2)CCC/C1=C\c1ccc(F)cc1`, the inhibition result in assay [1], in assay [2] and in assay [4] was “inactive” each time.
For `O=C1/C(=C/c2ccc(O)cc2)CC/C1=C\c1ccc(O)cc1`, the inhibition turned out to be 18% in assay [1], 15% in assay [2] and 28% in [4].
Regarding `O=C(/C=C/c1ccc(F)cc1)/C=C/c1ccc(F)cc1`, the pIC50 in assay [5] was 7.00; in assay [6], 5.48. The compound further had an inhibition in [4] of 39%.
Turning to `O=C1/C(=C/c2ccc(OC3CCCOC3)cc2)CCC/C1=C\c1ccc(OC2CCCOC2)cc1` (stereo unspecified), the inhibition in assay [1] turned out to be 16%; in [2] it was 21%. For the same compound, in [4], the inhibition entry was “inactive”.
As to `O=C1/C(=C/c2cccc(Br)c2)CCC/C1=C\c1cccc(Br)c1`, the inhibition stood at 25% in assay [1], 40% in assay [2] and 15% in assay [4].
In the same order, the values of `CN(C)c1ccc(/C=C2\CCC/C(=C\c3ccc(N(C)C)cc3)C2=O)cc1` are 12%, 10% and 17%.
Turning to `COc1cc(/C=C/C(=O)CC(=O)/C=C/c2ccc(O)c(OC)c2)ccc1O` [CURCUMIN], the inhibition at 10 µM in assay [7] came out at 64%. The pIC50 is 5.05 in [5], 5.64 in assay [6] and 4.17 in assay [3]. The inhibition result in assay [8] and in assay [9] was “Active” throughout.
Consider `C[C@]12CC[C@H](OCCc3ccccc3)CC1CC[C@@H]1[C@@H]2CC[C@]2(C)C(=O)CC[C@@H]12` (stereo partly specified), for which, in assay [10], the pIC50 is 7.24.
Regarding `COc1cc(/C=C2\CC/C(=C\c3ccc(OC4CCCOC4)c(OC)c3)C2=O)ccc1OC1CCCOC1` (stereo unspecified), the inhibition entry in assay [1], in assay [2] and in assay [4] was “inactive” throughout.
`O=C(/C=C/c1cccc(Br)c1)/C=C/c1cccc(Br)c1` gave an inhibition in assay [1] of 20%. Also, the pIC50 in [6] is 5.07; in assay [3], 5.57.
